Assay results taken from ChEMBL document CHEMBL4118148, “Design, synthesis and cardiovascular evaluation of some aminoisopropanoloxy derivatives of xanthone” (Bioorg Med Chem, 2018).
pIC50, pKi: −log10 of the molar value. Activity calls are given as the source filed them. The calls are words filed in the database; no cut-off is given here.

Tests used:
[1] = biological target: T1, Adrenergic receptor alpha-1 (Rattus norvegicus, UniProt P15823+P23944+P43140); experiment: Displacement of [3H][…]prazosin from adrenergic alpha1 receptor in Wistar rat cortex incubated for 30 mins by microbeta liquid scintillation counting analysis
T1 sequence (P15823 whole entry): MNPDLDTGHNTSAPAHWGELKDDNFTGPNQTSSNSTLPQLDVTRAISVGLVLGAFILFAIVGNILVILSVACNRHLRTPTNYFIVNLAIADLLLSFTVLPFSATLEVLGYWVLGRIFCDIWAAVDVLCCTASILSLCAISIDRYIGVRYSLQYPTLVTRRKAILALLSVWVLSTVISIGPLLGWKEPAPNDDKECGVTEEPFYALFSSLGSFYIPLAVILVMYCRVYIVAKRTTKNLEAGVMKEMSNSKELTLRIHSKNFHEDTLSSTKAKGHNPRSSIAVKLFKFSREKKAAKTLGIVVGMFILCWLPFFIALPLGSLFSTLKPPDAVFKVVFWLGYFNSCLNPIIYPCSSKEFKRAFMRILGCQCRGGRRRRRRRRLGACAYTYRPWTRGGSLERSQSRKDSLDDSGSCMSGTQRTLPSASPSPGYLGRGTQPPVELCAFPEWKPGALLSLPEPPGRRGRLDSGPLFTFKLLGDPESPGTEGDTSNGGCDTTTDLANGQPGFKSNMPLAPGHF
T1 sequence (P23944 whole entry): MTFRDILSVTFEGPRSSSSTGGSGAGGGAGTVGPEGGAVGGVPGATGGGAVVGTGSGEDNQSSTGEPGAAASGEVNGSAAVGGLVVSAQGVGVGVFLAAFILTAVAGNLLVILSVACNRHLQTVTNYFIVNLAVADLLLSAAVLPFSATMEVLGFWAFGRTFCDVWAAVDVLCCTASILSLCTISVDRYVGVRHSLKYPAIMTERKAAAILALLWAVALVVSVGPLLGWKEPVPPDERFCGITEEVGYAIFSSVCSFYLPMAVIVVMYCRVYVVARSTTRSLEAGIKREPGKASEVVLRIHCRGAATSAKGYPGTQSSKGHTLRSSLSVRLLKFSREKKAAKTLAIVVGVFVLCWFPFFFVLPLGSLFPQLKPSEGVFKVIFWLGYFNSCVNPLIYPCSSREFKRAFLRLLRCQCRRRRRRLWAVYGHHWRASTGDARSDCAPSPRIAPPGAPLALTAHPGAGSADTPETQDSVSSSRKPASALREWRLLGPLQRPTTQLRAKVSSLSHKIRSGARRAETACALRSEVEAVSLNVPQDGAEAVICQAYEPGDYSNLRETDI
T1 sequence (P43140 whole entry): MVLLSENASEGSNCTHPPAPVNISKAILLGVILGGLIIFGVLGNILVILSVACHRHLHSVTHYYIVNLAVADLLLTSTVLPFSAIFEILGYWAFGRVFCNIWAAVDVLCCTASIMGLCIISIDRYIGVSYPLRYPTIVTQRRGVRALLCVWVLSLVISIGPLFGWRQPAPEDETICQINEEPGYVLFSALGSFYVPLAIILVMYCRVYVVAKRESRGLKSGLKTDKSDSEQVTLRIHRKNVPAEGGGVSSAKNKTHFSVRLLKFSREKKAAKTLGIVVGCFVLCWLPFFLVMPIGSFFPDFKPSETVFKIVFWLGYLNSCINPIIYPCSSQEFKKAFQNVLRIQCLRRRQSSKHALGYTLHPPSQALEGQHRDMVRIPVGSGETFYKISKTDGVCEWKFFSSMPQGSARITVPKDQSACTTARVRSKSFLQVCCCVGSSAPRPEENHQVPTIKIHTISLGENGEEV

[2] = biological target: Adrenergic receptor alpha-2 (Rattus norvegicus) (UniProt P22086+P19328+P22909); experiment: Displacement of [3H]-clonidine from adrenergic alpha2 receptor in Wistar rat cortex at 10^-5 M incubated for 25 mins by microbeta liquid scintillation counting analysis
[3] = biological target: Beta-1 adrenergic receptor (Rattus norvegicus, UniProt P18090); experiment: Displacement of [3H]-CGP-12177 from adrenergic beta1 receptor in Wistar rat cortex incubated for 60 mins by microbeta liquid scintillation counting analysis
Chain of Beta-1 adrenergic receptor (P18090 whole entry): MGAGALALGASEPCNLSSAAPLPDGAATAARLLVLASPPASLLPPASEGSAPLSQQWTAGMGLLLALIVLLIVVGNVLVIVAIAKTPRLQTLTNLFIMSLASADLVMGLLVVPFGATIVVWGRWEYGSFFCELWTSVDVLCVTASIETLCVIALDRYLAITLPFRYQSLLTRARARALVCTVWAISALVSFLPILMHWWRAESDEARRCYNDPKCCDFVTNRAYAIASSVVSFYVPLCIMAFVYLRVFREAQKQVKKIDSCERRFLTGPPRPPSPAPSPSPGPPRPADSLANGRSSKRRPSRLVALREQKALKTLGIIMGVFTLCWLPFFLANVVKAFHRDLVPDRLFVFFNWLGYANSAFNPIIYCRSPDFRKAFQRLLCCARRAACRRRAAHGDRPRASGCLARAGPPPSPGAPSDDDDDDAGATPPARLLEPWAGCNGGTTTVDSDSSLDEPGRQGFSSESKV

Rattus norvegicus [4] = experiment: Hypotensive activity in normotensive Wistar rat assessed as diastolic blood pressure at 5 mg/kg, iv measured after 5 mins (reference value: 86.5 to 119.4 mmHg); format: functional
Rattus norvegicus [5] = experiment: Hypotensive activity in normotensive Wistar rat assessed as diastolic blood pressure at 5 mg/kg, iv measured after 10 mins (reference value: 86.5 to 119.4 mmHg); format: functional
Rattus norvegicus [6] = experiment: Hypotensive activity in normotensive Wistar rat assessed as systolic blood pressure at 5 mg/kg, iv measured after 20 mins (reference value: 119.2 to 148.6 mmHg); format: functional
Rattus norvegicus [7] = experiment: Hypotensive activity in normotensive Wistar rat assessed as diastolic blood pressure at 5 mg/kg, iv measured after 20 mins (reference value: 86.5 to 119.4 mmHg); format: functional
Rattus norvegicus [8] = experiment: Hypotensive activity in normotensive Wistar rat assessed as systolic blood pressure at 5 mg/kg, iv measured after 30 mins (reference value: 119.2 to 148.6 mmHg); format: functional
Rattus norvegicus [9] = experiment: Hypotensive activity in normotensive Wistar rat assessed as systolic blood pressure at 5 mg/kg, iv measured after 60 mins (reference value: 119.2 to 148.6 mmHg); format: functional
Rattus norvegicus [10] = experiment: Hypotensive activity in normotensive Wistar rat assessed as diastolic blood pressure at 5 mg/kg, iv measured after 60 mins (reference value: 86.5 to 119.4 mmHg); format: functional
Rattus norvegicus [11] = experiment: Cardiotoxicity in Wistar rat assessed as effect on heart rate at 5 mg/kg, iv measured after 1 min (reference value: 323 to 374.5 bpm); format: toxicity, organism-based; conditions: in vivo
Rattus norvegicus [12] = experiment: Cardiotoxicity in Wistar rat assessed as effect on QRS interval time at 5 mg/kg, iv measured after 1 min (reference value: 16.7 to 20.7 ms); format: toxicity, organism-based; conditions: in vivo
Rattus norvegicus [13] = experiment: Cardiotoxicity in Wistar rat assessed as effect on QT interval time at 5 mg/kg, iv measured after 1 min (reference value: 57.7 to 61 ms); format: toxicity, organism-based; conditions: in vivo
Rattus norvegicus [14] = experiment: Cardiotoxicity in Wistar rat assessed as effect on QTC interval time at 5 mg/kg, iv measured after 1 min (reference value: 136.7 to 146.2 ms); format: toxicity, organism-based; conditions: in vivo
Rattus norvegicus [15] = experiment: Cardiotoxicity in Wistar rat assessed as effect on PQ interval time at 5 mg/kg, iv measured after 5 mins (reference value: 52 to 57 ms); format: toxicity, organism-based; conditions: in vivo
Rattus norvegicus [16] = experiment: Cardiotoxicity in Wistar rat assessed as effect on QRS interval time at 5 mg/kg, iv measured after 5 mins (reference value: 16.7 to 20.7 ms); format: toxicity, organism-based; conditions: in vivo
Rattus norvegicus [17] = experiment: Cardiotoxicity in Wistar rat assessed as effect on QTC interval time at 5 mg/kg, iv measured after 5 mins (reference value: 136.7 to 146.2 ms); format: toxicity, organism-based; conditions: in vivo
Rattus norvegicus [18] = experiment: Cardiotoxicity in Wistar rat assessed as effect on QT interval time at 5 mg/kg, iv measured after 15 mins (reference value: 57.7 to 61 ms); format: toxicity, organism-based; conditions: in vivo, 0.25 h
Rattus norvegicus [19] = experiment: Cardiotoxicity in Wistar rat assessed as effect on QTC interval time at 5 mg/kg, iv measured after 15 mins (reference value: 136.7 to 146.2 ms); format: toxicity, organism-based; conditions: in vivo, 0.25 h

Row | SMILES | IC50 [1] | Activity [2] | pIC50 [3] | pKi [3] | Activity (Rattus norvegicus [4]) | Activity (Rattus norvegicus [5]) | Activity (Rattus norvegicus [6]) | Activity (Rattus norvegicus [7]) | Activity (Rattus norvegicus [8]) | Activity (Rattus norvegicus [9]) | Activity (Rattus norvegicus [10]) | Activity (Rattus norvegicus [11]) | Time (Rattus norvegicus [12]) | Time (Rattus norvegicus [13]) | Time (Rattus norvegicus [14]) | Time (Rattus norvegicus [15]) | Time (Rattus norvegicus [16]) | Time (Rattus norvegicus [17]) | Time (Rattus norvegicus [18]) | Time (Rattus norvegicus [19]) | also measured
1 | Cl.O=c1c2ccccc2oc2c(OCC(O)CN3CCN(c4ccccn4)CC3)cccc12 (racemic) | 171 nM | inactive | 5.85 | 6.67 | 110.8 mmHg | 106 mmHg | 129.8 mmHg | 102.6 mmHg | 126.6 mmHg | 126.4 mmHg | 96.6 mmHg | 368.2 bpm | 18.5 ms | 58.7 ms | 145.4 ms | 58 ms | 18 ms | 144.8 ms | 60.2 ms | 144 ms | –
2 | Cl.O=c1c2ccccc2oc2cc(OCC(O)CN3CCN(c4ccccn4)CC3)ccc12 (racemic) | 355.6 nM | inactive | – | 5.80 | 81 mmHg | 80.5 mmHg | 108.8 mmHg | 80.3 mmHg | 108.7 mmHg | 102.5 mmHg | 74.7 mmHg | 340.7 bpm | 18.7 ms | 59 ms | 140.2 ms | 54.7 ms | 20 ms | 133.3 ms | 59 ms | 133.9 ms | –
3 | CC(C)(C)NCC(O)COc1cccc2c(=O)c3ccccc3oc12.Cl (racemic) | – | inactive | – | 8.27 | – | – | – | – | – | – | – | – | – | – | – | – | – | – | – | – | Ki [1]: 814 nM

Now from value to compound, other results behind:

Row | IC50 [1] | Activity [2] | pIC50 [3] | pKi [3] | SMILES | Activity (Rattus norvegicus [4]) | Activity (Rattus norvegicus [5]) | Activity (Rattus norvegicus [6]) | Activity (Rattus norvegicus [7]) | Activity (Rattus norvegicus [8]) | Activity (Rattus norvegicus [9]) | Activity (Rattus norvegicus [10]) | Activity (Rattus norvegicus [11]) | Time (Rattus norvegicus [12]) | Time (Rattus norvegicus [13]) | Time (Rattus norvegicus [14]) | Time (Rattus norvegicus [15]) | Time (Rattus norvegicus [16]) | Time (Rattus norvegicus [17]) | Time (Rattus norvegicus [18]) | Time (Rattus norvegicus [19]) | also measured
4 | 1870 nM | inactive | 6.75 | 7.97 | COc1ccccc1CNCC(O)COc1cccc2c(=O)c3ccccc3oc12.Cl (racemic) | 107.2 mmHg | 107 mmHg | 133 mmHg | 100.6 mmHg | 126 mmHg | 125.3 mmHg | 94.3 mmHg | 246 bpm | 22 ms | 65.5 ms | 151.4 ms | 63.3 ms | 22.7 ms | 129.8 ms | 66.7 ms | 139.3 ms | –
5 | 109.5 nM | inactive | 6.75 | 6.07 | COc1ccccc1OCCNCC(O)COc1cccc2c(=O)c3ccccc3oc12.Cl (racemic) | 89.7 mmHg | 73 mmHg | 97.7 mmHg | 71.5 mmHg | 94.5 mmHg | 106.2 mmHg | 80 mmHg | 307 bpm | 19 ms | 70 ms | 157.2 ms | 58 ms | 19.3 ms | 148.3 ms | 63.3 ms | 131.1 ms | Ki [1]: 875.5 nM
6 | 349.8 nM | inactive | 6.37 | 6.44 | COc1ccccc1CCNCC(O)COc1cccc2c(=O)c3ccccc3oc12.Cl (racemic) | 108.6 mmHg | 101.8 mmHg | 128.2 mmHg | 98.8 mmHg | 126 mmHg | 117 mmHg | 89.6 mmHg | 356 bpm | 18 ms | 60.5 ms | 149.3 ms | 52.5 ms | 19 ms | 148.2 ms | 60 ms | 148.5 ms | Ki [1]: 4676 nM
7 | – | inactive | 6.97 | 6.45 | COc1ccc(CCNCC(O)COc2cccc3c(=O)c4ccccc4oc23)cc1OC.Cl (racemic) | 101.4 mmHg | 105 mmHg | 127 mmHg | 97.4 mmHg | 128 mmHg | 129.8 mmHg | 98.6 mmHg | 262.7 bpm | 22.8 ms | 61.3 ms | 128.1 ms | 58 ms | 22.7 ms | 138.4 ms | 63.3 ms | 132.7 ms | Ki [1]: 274 nM
